What was measured:
Fms = molecular target: T1, Fms (Homo sapiens, UniProt P07333); test: Fms biochemical assay (AlphaScreen or 33P-ATP); details: under the test conditions employed; read-out: IC50 toward kinase Fms
T1 construct: purchased Upstate Biotech 14-551
Description: Each sample was at 5% DMSO.

c-Raf-1 = c-Raf-1 (Homo sapiens, UniProt P04049); test: c-Raf-1 kinase activity assay; assay type: biochemical; details: under the test conditions employed; read-out: IC50 toward kinase c-Raf-1
Flt1 = Flt1 (Homo sapiens, UniProt P17948); test: Flt1 kinase activity assay; assay type: biochemical; details: under the test conditions employed; read-out: IC50 toward kinase Flt1
Sequence of Flt1 (P17948 27-1338): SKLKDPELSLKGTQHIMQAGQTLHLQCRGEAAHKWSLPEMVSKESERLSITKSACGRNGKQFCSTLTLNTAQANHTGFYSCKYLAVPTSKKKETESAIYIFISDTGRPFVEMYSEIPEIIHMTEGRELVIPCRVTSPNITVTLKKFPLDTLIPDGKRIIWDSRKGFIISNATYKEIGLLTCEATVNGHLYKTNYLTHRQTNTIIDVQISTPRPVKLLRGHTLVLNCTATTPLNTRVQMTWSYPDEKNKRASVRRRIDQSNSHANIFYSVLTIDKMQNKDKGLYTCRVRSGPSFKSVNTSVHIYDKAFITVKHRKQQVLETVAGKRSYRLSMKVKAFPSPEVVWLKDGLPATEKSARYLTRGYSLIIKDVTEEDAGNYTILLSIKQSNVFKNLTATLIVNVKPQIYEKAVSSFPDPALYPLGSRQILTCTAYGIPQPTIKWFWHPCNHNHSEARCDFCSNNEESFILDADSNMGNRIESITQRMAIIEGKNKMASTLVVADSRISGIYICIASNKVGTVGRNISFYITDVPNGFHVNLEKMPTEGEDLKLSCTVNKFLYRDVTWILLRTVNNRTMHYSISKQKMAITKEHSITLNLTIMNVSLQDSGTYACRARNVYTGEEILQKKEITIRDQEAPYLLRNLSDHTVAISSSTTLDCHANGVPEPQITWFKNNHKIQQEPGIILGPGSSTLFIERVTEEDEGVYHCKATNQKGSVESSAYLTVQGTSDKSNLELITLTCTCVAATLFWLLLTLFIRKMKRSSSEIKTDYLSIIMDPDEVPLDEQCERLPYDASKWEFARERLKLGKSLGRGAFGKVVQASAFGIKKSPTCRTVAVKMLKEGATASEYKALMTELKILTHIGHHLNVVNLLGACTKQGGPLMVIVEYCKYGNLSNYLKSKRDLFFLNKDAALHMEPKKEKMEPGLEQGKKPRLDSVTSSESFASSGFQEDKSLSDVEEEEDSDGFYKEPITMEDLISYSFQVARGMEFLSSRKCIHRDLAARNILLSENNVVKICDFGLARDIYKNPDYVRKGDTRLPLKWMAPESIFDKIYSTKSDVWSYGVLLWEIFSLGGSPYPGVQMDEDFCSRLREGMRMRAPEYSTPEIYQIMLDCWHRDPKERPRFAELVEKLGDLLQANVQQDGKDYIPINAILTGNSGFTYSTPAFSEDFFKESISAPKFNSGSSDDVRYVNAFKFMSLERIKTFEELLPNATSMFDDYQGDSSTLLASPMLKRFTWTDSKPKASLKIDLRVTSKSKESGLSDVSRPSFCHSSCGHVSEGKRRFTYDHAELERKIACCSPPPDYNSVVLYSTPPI

Fak = Fak (Homo sapiens, UniProt Q05397); test: Fak kinase activity assay; assay type: biochemical; details: under the test conditions employed; read-out: IC50 toward kinase Fak
B-Raf V600E = B-Raf V600E (Homo sapiens, UniProt P15056, V600E); test: B-Raf V600E kinase activity assay; assay type: biochemical; details: under the test conditions employed; read-out: IC50 toward kinase B-Raf V600E
Sequence of B-Raf V600E (P15056 whole entry V600E): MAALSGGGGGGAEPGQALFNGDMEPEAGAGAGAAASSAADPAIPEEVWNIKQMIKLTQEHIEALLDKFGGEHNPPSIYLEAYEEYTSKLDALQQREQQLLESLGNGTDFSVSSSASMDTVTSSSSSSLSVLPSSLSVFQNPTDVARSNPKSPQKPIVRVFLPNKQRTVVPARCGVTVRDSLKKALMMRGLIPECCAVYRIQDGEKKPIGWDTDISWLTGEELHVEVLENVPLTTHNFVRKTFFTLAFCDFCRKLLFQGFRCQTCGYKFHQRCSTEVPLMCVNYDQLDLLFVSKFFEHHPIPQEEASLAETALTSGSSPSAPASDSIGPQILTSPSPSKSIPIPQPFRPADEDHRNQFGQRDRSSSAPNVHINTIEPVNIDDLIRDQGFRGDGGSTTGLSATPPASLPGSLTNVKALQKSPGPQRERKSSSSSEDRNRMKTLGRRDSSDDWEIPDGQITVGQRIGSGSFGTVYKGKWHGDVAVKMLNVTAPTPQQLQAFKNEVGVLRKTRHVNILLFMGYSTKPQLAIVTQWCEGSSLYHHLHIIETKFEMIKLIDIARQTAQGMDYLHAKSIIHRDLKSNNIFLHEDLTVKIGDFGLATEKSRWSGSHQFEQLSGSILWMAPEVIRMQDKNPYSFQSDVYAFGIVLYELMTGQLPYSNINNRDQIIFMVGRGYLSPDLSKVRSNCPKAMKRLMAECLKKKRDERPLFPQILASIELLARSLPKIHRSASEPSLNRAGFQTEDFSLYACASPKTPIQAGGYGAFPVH

B-Raf = B-Raf (Homo sapiens, UniProt P15056); test: B-Raf kinase activity assay; assay type: biochemical; details: under the test conditions employed; read-out: IC50 toward kinase B-Raf
Sequence of B-Raf (P15056 whole entry): as the sequence (P15056 whole entry V600E) above, with E600V counted along it

Kit = molecular target: T2, Kit (Homo sapiens, UniProt P10721); test: c-kit biochemical assay (AlphaScreen or 33P-ATP); details: under the test conditions employed; read-out: IC50 toward kinase Kit
T2 construct: P1332.N6 BI PTP KIT M552-K948-X COD; made in house; host or cells: E. coli BL21(DE3)RIL, co-expressed with PTP1B
T2 sequence (P10721 552-948): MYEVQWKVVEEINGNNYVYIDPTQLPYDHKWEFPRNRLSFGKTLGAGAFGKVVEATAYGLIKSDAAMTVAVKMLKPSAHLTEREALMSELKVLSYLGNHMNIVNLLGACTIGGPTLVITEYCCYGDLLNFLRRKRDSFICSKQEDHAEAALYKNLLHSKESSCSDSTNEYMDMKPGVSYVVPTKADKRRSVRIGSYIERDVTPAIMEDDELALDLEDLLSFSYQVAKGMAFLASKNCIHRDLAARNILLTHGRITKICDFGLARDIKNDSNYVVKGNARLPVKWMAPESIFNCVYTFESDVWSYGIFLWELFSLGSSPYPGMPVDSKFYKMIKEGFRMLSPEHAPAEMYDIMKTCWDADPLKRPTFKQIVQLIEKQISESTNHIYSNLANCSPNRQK
In short: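 Kinase activity read by AlphaScreen or 33P-ATP incorporation, with c-kit enzyme at 1 ng per sample. The enzyme was either commercial or a recombinant human kit construct made from a gene-synthesized coding sequence.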

Src = Src (Homo sapiens, UniProt P12931); test: Src kinase activity assay; assay type: biochemical; details: under the test conditions employed; read-out: IC50 toward kinase Src
Sequence of Src (P12931 whole entry): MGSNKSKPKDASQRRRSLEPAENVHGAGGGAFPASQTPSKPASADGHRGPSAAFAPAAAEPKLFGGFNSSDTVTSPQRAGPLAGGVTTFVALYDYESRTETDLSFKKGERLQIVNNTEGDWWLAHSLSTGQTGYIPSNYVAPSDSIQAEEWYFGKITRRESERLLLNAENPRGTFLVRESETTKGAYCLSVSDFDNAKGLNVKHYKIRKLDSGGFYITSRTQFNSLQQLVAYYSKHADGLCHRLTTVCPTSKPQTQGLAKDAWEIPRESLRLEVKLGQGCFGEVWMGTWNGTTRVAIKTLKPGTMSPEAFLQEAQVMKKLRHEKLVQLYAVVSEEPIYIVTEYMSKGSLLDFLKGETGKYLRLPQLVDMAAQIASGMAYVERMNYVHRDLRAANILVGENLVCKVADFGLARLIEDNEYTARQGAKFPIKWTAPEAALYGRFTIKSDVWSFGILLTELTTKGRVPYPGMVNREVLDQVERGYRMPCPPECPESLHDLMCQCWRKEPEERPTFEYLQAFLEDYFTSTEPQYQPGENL

Jnk1 = Jnk1 (Homo sapiens, UniProt P45983); test: Jnk1 kinase activity assay; assay type: biochemical; details: under the test conditions employed; read-out: IC50 toward kinase Jnk1
HGK = HGK (Homo sapiens, UniProt O95819); test: HGK (MAP4K4) biochemical assay (AlphaScreen); details: under the test conditions employed; read-out: IC50 toward kinase HGK
In short: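 AlphaScreen kinase assay with 0.5 ng MAP4K4 per sample and 10 nM biotin-ERM substrate, reacted 40 min at room temperature. Stopped with EDTA buffer containing phospho-ERM antibody (1:1000) plus donor and protein A acceptor beads (1 μg/ml final); signal tracks substrate phosphorylation.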

TrkA = molecular target: T3, TrkA (Homo sapiens, UniProt P04629); test: TrkA biochemical assay (AlphaScreen); details: under the test conditions employed; read-out: IC50 toward kinase TrkA
T3 construct: purchased Upstate Biotech 14-571
T3 sequence (P04629 33-796): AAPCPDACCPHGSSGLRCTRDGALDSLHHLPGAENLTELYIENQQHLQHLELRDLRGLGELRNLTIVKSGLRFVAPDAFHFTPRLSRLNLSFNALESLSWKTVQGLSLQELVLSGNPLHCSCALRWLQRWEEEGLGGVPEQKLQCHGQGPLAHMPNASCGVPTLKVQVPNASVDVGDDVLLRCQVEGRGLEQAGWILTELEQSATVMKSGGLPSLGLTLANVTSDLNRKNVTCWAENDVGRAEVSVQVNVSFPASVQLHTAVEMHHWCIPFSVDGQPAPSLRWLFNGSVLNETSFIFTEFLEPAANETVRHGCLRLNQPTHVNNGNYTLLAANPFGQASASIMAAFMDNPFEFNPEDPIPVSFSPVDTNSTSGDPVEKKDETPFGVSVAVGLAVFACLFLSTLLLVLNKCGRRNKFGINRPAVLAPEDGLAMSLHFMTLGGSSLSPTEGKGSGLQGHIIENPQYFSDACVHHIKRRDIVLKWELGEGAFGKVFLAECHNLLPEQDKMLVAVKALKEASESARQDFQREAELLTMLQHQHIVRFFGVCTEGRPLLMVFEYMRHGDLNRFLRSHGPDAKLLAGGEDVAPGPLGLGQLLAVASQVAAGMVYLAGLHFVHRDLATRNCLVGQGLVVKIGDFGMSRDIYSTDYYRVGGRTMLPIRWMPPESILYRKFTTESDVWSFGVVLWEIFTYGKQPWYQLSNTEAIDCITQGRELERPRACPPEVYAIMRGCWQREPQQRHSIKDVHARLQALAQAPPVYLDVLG
Experimental: Compounds tested were dissolved in DMSO (1 μL) and added to a white 384-well plate (Costar #3705). […] Each sample was at 5% DMSO. The plate was then incubated for 40 minutes at room temperature.

Kdr = Kdr (Homo sapiens, UniProt P35968); test: Kdr kinase activity assay; assay type: biochemical; details: under the test conditions employed; read-out: IC50 toward kinase Kdr
Btk = Btk (Homo sapiens, UniProt Q06187); test: Btk kinase activity assay; assay type: biochemical; details: under the test conditions employed; read-out: IC50 toward kinase Btk
B-Raf V600E/T529I = B-Raf V600E/T529I (Homo sapiens, UniProt P15056, T529I/V600E); test: B-Raf V600E/T529I kinase activity assay; assay type: biochemical; details: under the test conditions employed; read-out: IC50 toward kinase B-Raf V600E/T529I
Sequence of B-Raf V600E/T529I (P15056 whole entry T529I/V600E): as the sequence (P15056 whole entry V600E) above, with T529I counted along it

Met = Met (Homo sapiens, UniProt P08581); test: Met kinase activity assay; assay type: biochemical; details: under the test conditions employed; read-out: IC50 toward kinase Met
FGFR = FGFR (Homo sapiens, UniProt P11362); test: FGFR kinase activity assay; assay type: biochemical; details: under the test conditions employed; read-out: IC50 toward kinase FGFR

Measured: IC50

T1 sequence (P07333 20-972): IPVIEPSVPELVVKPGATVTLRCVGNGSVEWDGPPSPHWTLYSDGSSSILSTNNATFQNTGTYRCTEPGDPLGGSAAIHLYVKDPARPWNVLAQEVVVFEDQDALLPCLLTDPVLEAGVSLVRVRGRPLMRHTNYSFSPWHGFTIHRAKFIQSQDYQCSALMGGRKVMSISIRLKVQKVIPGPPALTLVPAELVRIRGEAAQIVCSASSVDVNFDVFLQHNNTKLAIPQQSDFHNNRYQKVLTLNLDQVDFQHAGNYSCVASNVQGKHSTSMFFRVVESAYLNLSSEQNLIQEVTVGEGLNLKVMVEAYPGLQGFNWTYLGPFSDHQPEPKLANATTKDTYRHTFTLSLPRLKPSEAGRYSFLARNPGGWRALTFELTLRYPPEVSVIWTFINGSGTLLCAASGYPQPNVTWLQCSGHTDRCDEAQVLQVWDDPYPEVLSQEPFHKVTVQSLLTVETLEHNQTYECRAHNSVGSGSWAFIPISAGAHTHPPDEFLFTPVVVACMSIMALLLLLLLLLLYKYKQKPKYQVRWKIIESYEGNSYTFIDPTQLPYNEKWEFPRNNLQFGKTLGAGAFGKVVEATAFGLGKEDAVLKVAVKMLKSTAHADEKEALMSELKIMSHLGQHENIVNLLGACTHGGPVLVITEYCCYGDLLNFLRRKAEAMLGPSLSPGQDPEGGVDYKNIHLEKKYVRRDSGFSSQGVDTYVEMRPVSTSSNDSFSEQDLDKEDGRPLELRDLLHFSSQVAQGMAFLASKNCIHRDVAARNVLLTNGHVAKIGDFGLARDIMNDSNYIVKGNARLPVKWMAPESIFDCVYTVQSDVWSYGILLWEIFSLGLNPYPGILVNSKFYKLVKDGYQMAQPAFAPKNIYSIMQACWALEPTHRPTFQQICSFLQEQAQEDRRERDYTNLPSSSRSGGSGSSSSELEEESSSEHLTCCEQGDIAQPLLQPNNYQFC

COc1cc(Cc2c[nH]c3ncccc23)ccc1OCc1ccc(Cl)cc1 [P-1247, 3-(4-(4-chlorobenzyloxy)-3-methoxybenzyl)-1H-pyrrolo[2,3-b]pyridine]
≤ 10 µM: Fms | c-Raf-1 | Flt1 | Fak | B-Raf V600E | B-Raf | Kit | Src

Fc1cc(Cc2c[nH]c3ncccc23)ccc1OCc1ccc(Cl)cc1 [P-1896, 3-[4-(4-Chloro-benzyloxy)-3-fluoro-benzyl]-1H-pyrrolo[2,3-b]pyridine]
≤ 10 µM: Jnk1

O=C(c1ccc(OCc2ccc(Cl)cc2)c(F)c1)c1c[nH]c2ncccc12 [P-1897, [4-(4-chloro-benzyloxy)-3-fluoro-phenyl]-(1H-pyrrolo[2,3-b]pyridin-3-yl)-methanone]
≤ 10 µM: Jnk1

Cn1cc(-c2cnc3[nH]cc(Cc4cc(F)c(OCc5nc6ccccc6[nH]5)cc4Cl)c3c2)cn1 [P-2109, 2-{5-Chloro-2-fluoro-4-[5-(1-methyl-1H-pyrazol-4-yl)-1H-pyrrolo[2,3-b]pyridin-3-ylmethyl]-phenoxymethyl}-1H-benzoimidazole]
≤ 10 µM: Fms | HGK | TrkA | Flt1 | Kdr | Kit | Src

Cn1cc(-c2cnc3[nH]cc(Cc4cc(Cl)c(OCc5nc6ccccc6[nH]5)cc4F)c3c2)cn1 [P-2117, 2-{2-Chloro-5-fluoro-4-[5-(1-methyl-1H-pyrazol-4-yl)-1H-pyrrolo[2,3-b]pyridin-3-ylmethyl]-phenoxymethyl}-1H-benzoimidazole]
≤ 10 µM: Fms | TrkA | Flt1 | Kdr | Kit | Src

Cn1cc(-c2cnc3[nH]cc(C(=O)c4c(F)ccc(OCC(F)(F)F)c4Cl)c3c2)cn1 [P-2145, [2-Chloro-6-fluoro-3-(2,2,2-trifluoro-ethoxy)-phenyl]-[5-(1-methyl-1H-pyrazol-4-yl)-1H-pyrrolo[2,3-b]pyridin-3-yl]-methanone]
≤ 10 µM: Fms | Btk | TrkA | Flt1 | Kdr | B-Raf | Kit | Src

Cn1cc(-c2cnc3[nH]cc(C(=O)c4c(Cl)ccc(OCC(F)(F)F)c4Cl)c3c2)cn1 [P-2151, [2,6-Dichloro-3-(2,2,2-trifluoro-ethoxy)-phenyl]-[5-(1-methyl-1H-pyrazol-4-yl)-1H-pyrrolo[2,3-b]pyridin-3-yl]-methanone]
≤ 10 µM: Fms | B-Raf V600E/T529I | Flt1 | Kdr | B-Raf | Kit | Src

Cn1cc(-c2cnc3[nH]cc(Cc4c(Cl)ccc(OCC(F)(F)F)c4Cl)c3c2)cn1 [P-2152, 3-[2,6-Dichloro-3-(2,2,2-trifluoro-ethoxy)-benzyl]-5-(1-methyl-1H-pyrazol-4-yl)-1H-pyrrolo[2,3-b]pyridine]
≤ 10 µM: Fms | B-Raf V600E/T529I | Kdr

COc1cnc2[nH]cc(C(=O)c3c(Cl)ccc(OCC(F)(F)F)c3Cl)c2c1 [P-2154, [2,6-Dichloro-3-(2,2,2-trifluoro-ethoxy)-phenyl]-(5-methoxy-1H-pyrrolo[2,3-b]pyridin-3-yl)-methanone]
≤ 10 µM: Fms | B-Raf V600E/T529I | Flt1 | Kdr

Fc1cc(Cc2c[nH]c3ncc(Cl)cc23)c(Cl)cc1OCc1cccnc1 [P-2156, 5-Chloro-3-[2-chloro-5-fluoro-4-(pyridin-3-ylmethoxy)-benzyl]-1H-pyrrolo[2,3-b]pyridine]
≤ 10 µM: Fms | B-Raf V600E/T529I | Kdr | Kit

COCCOc1ccc(F)c(Cc2c[nH]c3ncc(Cl)cc23)c1Cl [P-2157, 5-Chloro-3-[2-chloro-6-fluoro-3-(2-methoxy-ethoxy)-benzyl]-1H-pyrrolo[2,3-b]pyridine]
≤ 10 µM: Fms | Kdr | Kit | Met | FGFR

COc1cc(Cc2c[nH]c3ncccc23)c(Cl)cc1OCc1ccc(Cl)cc1F [P-2166, 3-[2-chloro-4-(4-chloro-2-fluoro-benzyloxy)-5-methoxy-benzyl]-1H-pyrrolo[2,3-b]pyridine]
≤ 10 µM: Fms | B-Raf V600E/T529I | Kdr

— patent US7872018B2, “Compounds and methods for kinase modulation, and indications therefor” (Plexxikon, Inc., priority 2006, dated 2011)
